EC50, AC50 and CC50 data for three compounds are collected here from ChEMBL document CHEMBL1201862, “PubChem BioAssay data set” (2004).

Test [1] addresses Wee1-like protein kinase (Homo sapiens, UniProt P30291). The experiment in a line: HeLa cell cycle G2/M accumulation – FACS, mechanism study for Wee1 degradation inhibitor project, late-stage follow-up, panel member Wee1 Degradation (AID 2088).
Test [2] concerns the target G2/mitotic-specific cyclin-B1 (Homo sapiens, UniProt P14635). In words: HeLa cell cycle G2/M accumulation – FACS, mechanism study for Wee1 degradation inhibitor project, late-stage follow-up, panel member Cyclin B Degradation (AID 2088).
In test [3] the target is Neurotensin receptor type 1 (Homo sapiens, UniProt P30989). It is filed as functional.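 Note: Image-based confirmatory dose-response assay measuring agonist activity at NTR1; NTR1-expressing U2OS osteosarcoma cells imaged for beta-arrestin GFP spot formation; agonist potency where compounds increase beta-arrestin recruitment.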
A short description of test [4]: A549 cell cytotoxicity, dose response, cytotoxicity control, plate reader, cherry-pick, antagonist series (AID 743412). Type of test: functional, cell-based.
A short description of test [5]: toxicity toward HepG2 liver cells – cell-based, plate reader, cherry-pick, antagonist series, cytotoxicity control, dose response (AID 743416). It is filed as functional.
A short description of test [6]: blockers of bursicon-stimulated LGR2 cAMP reporter – cell-based, HEK293, CRE-luciferase reporter, cherry pick, set 2, dose response (AID 743343).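 Note: transfected cells were stimulated with diluted bursicon conditioned medium after compound addition.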 Type of test: functional.
The nature of test [7]: blockade of melanocortin 4 receptor signaling – cell-based, plate reader, cherry pick, counter-screen for LGR2 antagonist project, dose response (AID 743444).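 Note: transfected HEK 293 cells stimulated with alpha-MSH peptide; potency of inhibitors of the alpha-MSH evoked signal.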 Type of test: functional.
Test [8] in a line: viability loss in HEK293 cells – cell-based, plate reader, cherry-picked samples, cytotoxicity control, dose response (AID 743446). Type of test: functional.
Test [9] can be described thus: Trypanosoma cruzi growth suppression in host cells – NIH3T3 host cells, beta-gal luminescence, confirmation (AID 2044).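 Note: intracellular parasites grown in NIH/3T3 mouse fibroblasts as host cells; luminescent beta-galactosidase reporter signal from transgenic T. cruzi replicating inside host cells; inhibitors lower the luminescence signal.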 Type of test: functional, cell-based.
The nature of test [10]: NIH3T3 cell viability loss – ATP luminescence, mouse fibroblasts, counter-screen, dose response (AID 2010).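 Note: cells exposed to compound for about 90 hours before reading.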 It is filed as functional, cell-based.
A short description of test [11]: Cytotoxicity screening for potential Inhibitors of Bacterial Capsule Biogenesis. [Related pubchem assays (depositor defined):AID488970]. Type of test: functional.

The source made the active and inactive calls.

Wee1-like protein kinase, sequence (P30291 whole entry): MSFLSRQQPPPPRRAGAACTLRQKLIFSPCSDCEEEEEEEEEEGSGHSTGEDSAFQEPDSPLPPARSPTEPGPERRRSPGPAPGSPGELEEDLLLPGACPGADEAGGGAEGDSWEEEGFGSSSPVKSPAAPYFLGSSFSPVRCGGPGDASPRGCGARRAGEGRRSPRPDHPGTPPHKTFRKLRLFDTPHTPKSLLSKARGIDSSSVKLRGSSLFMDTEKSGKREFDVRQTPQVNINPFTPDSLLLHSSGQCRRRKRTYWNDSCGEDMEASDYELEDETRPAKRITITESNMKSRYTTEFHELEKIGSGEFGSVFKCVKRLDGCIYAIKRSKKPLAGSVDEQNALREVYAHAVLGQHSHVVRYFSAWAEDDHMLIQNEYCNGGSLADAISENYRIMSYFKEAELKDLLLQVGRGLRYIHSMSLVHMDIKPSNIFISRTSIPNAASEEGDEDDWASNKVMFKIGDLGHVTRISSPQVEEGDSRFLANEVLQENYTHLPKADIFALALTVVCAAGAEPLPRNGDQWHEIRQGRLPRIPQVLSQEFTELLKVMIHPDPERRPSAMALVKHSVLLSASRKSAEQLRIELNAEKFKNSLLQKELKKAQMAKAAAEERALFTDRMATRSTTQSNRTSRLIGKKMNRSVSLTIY
Neurotensin receptor type 1, sequence (P30989 whole entry): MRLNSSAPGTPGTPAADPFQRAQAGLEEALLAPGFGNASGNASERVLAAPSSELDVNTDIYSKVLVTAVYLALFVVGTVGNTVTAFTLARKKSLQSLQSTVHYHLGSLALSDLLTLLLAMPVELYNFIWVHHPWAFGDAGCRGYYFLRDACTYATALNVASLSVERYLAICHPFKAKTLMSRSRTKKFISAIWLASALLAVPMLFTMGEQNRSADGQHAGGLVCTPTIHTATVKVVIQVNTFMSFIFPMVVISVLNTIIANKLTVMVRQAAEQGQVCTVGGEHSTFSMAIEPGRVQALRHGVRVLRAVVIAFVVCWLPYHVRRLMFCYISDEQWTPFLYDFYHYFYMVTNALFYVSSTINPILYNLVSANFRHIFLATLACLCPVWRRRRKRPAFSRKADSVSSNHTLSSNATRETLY
G2/mitotic-specific cyclin-B1, sequence (P14635 whole entry): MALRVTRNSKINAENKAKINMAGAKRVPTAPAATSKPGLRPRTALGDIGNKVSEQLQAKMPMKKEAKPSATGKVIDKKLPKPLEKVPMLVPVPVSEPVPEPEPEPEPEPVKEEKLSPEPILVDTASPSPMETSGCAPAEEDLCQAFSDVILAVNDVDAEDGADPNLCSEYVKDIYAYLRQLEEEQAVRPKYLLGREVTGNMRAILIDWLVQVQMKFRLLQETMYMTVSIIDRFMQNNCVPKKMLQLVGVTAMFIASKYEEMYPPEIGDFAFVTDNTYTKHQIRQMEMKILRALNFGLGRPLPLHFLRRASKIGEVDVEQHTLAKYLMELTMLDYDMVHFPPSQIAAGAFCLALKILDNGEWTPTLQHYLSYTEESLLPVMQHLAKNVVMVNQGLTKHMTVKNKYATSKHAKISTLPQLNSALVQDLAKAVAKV

For `Cc1cc(O)nc(-n2nc(C)cc2NC(=O)c2ccc(F)cc2)n1`, the concentration for a half-maximal effect (EC50) was > 16.6 µM (active) in test [1] and > 49.7 µM (inactive) in test [2].
With `COc1ccc2sc(-c3ccc(S(C)(=O)=O)cc3)c(C#CCO)c2c1`, in test [3], the EC50 was 26.6 µM (inactive). Moreover, the AC50 in test [4] was 10.6 µM (active); in [5], 24.4 µM (active); in test [6], 25 µM (active); in test [7], 30.1 µM (active); in test [8], 16.8 µM (active).
Consider `COc1cc(/C=N/N=C(N)N)ccc1OCc1ccccc1Cl`, for which the half-maximal effective concentration (EC50) in test [9] was 0.447 µM (active); in [10], > 60 µM (not active). The CC50 in test [11] is 6.19 µM (active).
